The test system of one assay is MOLT-4. The experiment in a line: Cellular MOLT-4 viability assay (CellTiter-Glo, 72 hours). Format: cell-based. The settings on record: Homo sapiens, MOLT4 viability assay. The method in brief:
(§1)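 CellTiter-Glo luminescence read in duplicate after 72 h compound exposure (37 °C, 5% CO2); DMSO-only control, final DMSO under 0.1%.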
(In general: Cellular ATP, detected with luciferase, serves as a proxy for viable cell number.)

A further assay relates to H460. The experiment in a line: Cellular H460 viability assay (CellTiter-Glo, 72 hours). Type of assay: cell-based. The settings on record: Homo sapiens, NCI-H460. The method in brief: as §1
A further assay has as its target T1, CDK7/Cyclin H/MNAT1 (Homo sapiens, UniProt P50613).
T1 construct: purchased Invitrogen PR6749B
The assay is described as follows: Enzymatic assay for CDK7 (FRET based LANCE Ultra kinase assay). Type of assay: biochemical. Conditions: for IC50: read-out: CDK7 enzymatic activity (IC50 range). The method in brief:
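Inhibition was measured at Km ATP by time-resolved FRET between a Eu anti-phospho antibody and a phosphorylated ULight peptide. The enzyme was the purified CDK7/cyclin complex, and data were curve-fitted.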
Background: TR-FRET usually uses a lanthanide donor and a delayed reading to cut background.

In another assay the test system is RPMI-8226. The assay is described as follows: Cellular RPMI-8226 viability assay (CellTiter-Glo, 72 hours). Type of assay: cell-based. Conditions: Homo sapiens. The method in brief:
as §1

The next assay deals with T2, CDK2/Cyclin A (Homo sapiens, UniProt P24941).
T2 construct: purchased Invitrogen PV6290
The experiment in a line: Enzymatic assay for CDK2 (FRET based LANCE Ultra kinase assay). Format: biochemical. The settings on record: read-out: CDK2 enzymatic activity (IC50 range). In short, it runs like this:
(§2)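 Each CDK complex ([…]) phosphorylated 68 nM ULight-MBP peptide with ATP at Km for 60 min at 23° C., against 8 compound doses (4-fold dilutions). EDTA/Eu-anti-phospho-MBP detection, 60 min, then TR-FRET emission at 615 and 665 nm.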

In a further assay the test system is MM.1S. The assay is described as follows: Cellular MM.1S viability assay (CellTiter-Glo, 72 hours). Type of assay: cell-based. Conditions: Homo sapiens, MM1.S. In short, it runs like this: (§3)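 Compound exposure lasted 72 h at 37° C, 5% CO2, over 0.0015–10 uM, DMSO kept under 0.1%, with dosing 24 h after seeding. Seeding: A2780 1×10^3, OVCAR-3 5×10^3, MM.1S 1×10^4 cells/well in 10% FBS RPMI-1640. Duplicate CellTiter-Glo luminescence readout.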

The next assay deals with T3, CDK1/Cyclin B (Homo sapiens, UniProt P06493).
T3 construct: purchased Invitrogen PR4768C
T3 sequence (P06493 whole entry): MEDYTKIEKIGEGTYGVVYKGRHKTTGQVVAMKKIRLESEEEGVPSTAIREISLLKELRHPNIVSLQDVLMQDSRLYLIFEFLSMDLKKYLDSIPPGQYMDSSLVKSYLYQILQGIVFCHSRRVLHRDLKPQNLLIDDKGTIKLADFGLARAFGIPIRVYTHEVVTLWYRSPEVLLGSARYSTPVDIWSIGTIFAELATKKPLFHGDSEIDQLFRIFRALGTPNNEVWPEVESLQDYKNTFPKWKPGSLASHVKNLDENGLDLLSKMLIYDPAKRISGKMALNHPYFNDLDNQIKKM
T3 sequence (P14635 whole entry partner): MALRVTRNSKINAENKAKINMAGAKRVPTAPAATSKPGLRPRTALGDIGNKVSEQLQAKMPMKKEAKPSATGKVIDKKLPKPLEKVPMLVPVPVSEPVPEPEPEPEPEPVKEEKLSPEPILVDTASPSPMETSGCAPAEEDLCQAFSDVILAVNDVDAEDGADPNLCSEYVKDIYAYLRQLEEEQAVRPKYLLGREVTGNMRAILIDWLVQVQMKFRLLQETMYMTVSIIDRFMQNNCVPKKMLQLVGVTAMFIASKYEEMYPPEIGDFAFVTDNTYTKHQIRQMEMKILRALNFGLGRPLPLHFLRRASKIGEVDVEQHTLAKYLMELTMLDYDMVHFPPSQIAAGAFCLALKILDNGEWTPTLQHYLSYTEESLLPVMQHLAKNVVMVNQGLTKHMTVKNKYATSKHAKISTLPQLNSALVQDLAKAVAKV
The experiment in a line: Enzymatic assay for CDK1 (FRET based LANCE Ultra kinase assay). Type of assay: biochemical. Conditions: read-out: CDK1 enzymatic activity (IC50 range). In short, it runs like this:
as §2

A further assay addresses T4, CDK5/p25 (Homo sapiens, UniProt Q00535).
T4 construct: purchased Invitrogen PR8543B
The experiment in a line: Enzymatic assay for CDK5 (FRET based LANCE Ultra kinase assay). Type of assay: biochemical. Conditions: read-out: CDK5 enzymatic activity (IC50 range). In short, it runs like this: as §2

In a further assay the test system is MV4-11. The assay is described as follows: Cellular MV4-11 viability assay (CellTiter-Glo, 72 hours). Format: cell-based. Conditions: Homo sapiens. The method in brief: as §1
A further assay concerns HCT116. The experiment in a line: Cellular HCT116 viability assay (CellTiter-Glo, 72 hours). Type of assay: cell-based. Conditions: Homo sapiens, HCT-116. The method in brief: as §1
The next assay deals with A2780. The assay is described as follows: Cellular A2780 viability assay (CellTiter-Glo, 72 hours). The settings on record: Homo sapiens. Format: cell-based. In short, it runs like this:
as §3

Molecules are shown by their SMILES.

T4 sequence (Q00535 whole entry): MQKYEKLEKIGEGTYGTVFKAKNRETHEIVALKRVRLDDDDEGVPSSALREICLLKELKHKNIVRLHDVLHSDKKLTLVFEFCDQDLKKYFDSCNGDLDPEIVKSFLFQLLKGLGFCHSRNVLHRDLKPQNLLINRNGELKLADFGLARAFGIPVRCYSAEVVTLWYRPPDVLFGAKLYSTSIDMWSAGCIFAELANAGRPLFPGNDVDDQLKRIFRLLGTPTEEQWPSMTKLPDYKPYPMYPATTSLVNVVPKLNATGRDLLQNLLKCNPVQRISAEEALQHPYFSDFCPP
T4 sequence (Q15078 99-307 partner limits assumed): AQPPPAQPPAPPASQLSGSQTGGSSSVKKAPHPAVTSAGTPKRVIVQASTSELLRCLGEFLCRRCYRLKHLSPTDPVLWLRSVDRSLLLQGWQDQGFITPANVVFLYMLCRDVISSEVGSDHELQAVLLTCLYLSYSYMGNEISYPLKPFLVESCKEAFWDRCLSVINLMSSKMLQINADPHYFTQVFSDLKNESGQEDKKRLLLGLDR
T1 sequence (P50613 whole entry): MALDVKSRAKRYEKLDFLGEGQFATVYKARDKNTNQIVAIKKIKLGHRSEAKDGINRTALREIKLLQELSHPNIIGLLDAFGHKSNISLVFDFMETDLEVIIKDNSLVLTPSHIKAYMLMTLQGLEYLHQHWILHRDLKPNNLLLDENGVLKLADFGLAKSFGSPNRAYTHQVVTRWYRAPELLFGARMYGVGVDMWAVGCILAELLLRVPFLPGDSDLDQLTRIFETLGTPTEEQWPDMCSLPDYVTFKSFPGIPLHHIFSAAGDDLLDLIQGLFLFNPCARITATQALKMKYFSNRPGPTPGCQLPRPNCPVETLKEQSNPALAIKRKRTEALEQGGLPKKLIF
T1 sequence (P51946 whole entry partner): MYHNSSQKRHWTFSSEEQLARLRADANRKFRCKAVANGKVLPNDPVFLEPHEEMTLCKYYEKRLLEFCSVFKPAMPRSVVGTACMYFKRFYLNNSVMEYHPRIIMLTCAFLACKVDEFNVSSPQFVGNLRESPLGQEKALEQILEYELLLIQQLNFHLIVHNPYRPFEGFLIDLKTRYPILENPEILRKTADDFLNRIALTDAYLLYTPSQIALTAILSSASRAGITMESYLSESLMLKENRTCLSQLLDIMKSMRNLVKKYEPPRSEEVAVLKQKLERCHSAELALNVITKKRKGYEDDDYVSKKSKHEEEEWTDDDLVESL
T1 sequence (P51948 whole entry partner): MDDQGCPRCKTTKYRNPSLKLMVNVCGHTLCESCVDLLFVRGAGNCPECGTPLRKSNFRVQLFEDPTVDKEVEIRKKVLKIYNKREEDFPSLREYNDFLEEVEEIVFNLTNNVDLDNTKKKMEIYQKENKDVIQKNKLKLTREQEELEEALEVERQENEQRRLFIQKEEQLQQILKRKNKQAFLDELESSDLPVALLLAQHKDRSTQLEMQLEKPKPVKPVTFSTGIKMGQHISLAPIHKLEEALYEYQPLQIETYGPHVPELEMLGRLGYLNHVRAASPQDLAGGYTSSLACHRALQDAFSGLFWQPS

Take `CC(C)c1cnn2c(NCc3ccccc3-n3cc4cc(F)ccc4n3)nc(N3CCC(N)CC3)nc12` [Compound 108]: the IC50 – broadly, the concentration that gives 50% inhibition – with MOLT-4 was 1000 to 10000 nM; with H460 it was under 1000 nM; at CDK7/Cyclin H/MNAT1, under 100 nM; with RPMI-8226, under 1000 nM; at CDK2/Cyclin A it was 100 to 1000 nM; with MM.1S, at most 1000 nM. The IC50 on CDK1/Cyclin B is 100 to 1000 nM; at CDK5/p25, 100 to 1000 nM; with MV4-11 it was under 1000 nM; in the assay on HCT116, under 1000 nM. Besides, the “CDK1/CDK7: Selectivity of CDK7 inhibition over CDK1 inhibition” value at CDK7/Cyclin H/MNAT1 is recorded as “B (B=less than 200 fold, but greater than 20 fold)”. Also, the “CDK2/CDK7: Selectivity of CDK7 inhibition over CDK2 inhibition” value on CDK7/Cyclin H/MNAT1 is recorded as “B (B=less than 200 fold, but greater than 20 fold)”. Further, the “CDK5/CDK7: Selectivity of CDK7 inhibition over CDK5 inhibition” value at CDK7/Cyclin H/MNAT1 is “B (B=less than 200 fold, but greater than 20 fold)”.

Take `CC(C)c1cnn2c(NCc3ccccc3-c3nccc4c(NC(=O)CCCN(C)C)cccc34)nc(N3CCC(N)CC3)nc12` [Compound 90]: the half-inhibitory concentration (IC50) was over 10000 nM in the assay on MOLT-4; 1000 to 10000 nM in the assay on H460; under 100 nM at CDK7/Cyclin H/MNAT1; 1000 to 10000 nM in the assay on RPMI-8226; over 1000 nM on CDK2/Cyclin A; over 10000 nM in the assay with MM.1S. The IC50 was over 1000 nM on CDK1/Cyclin B, over 1000 nM on CDK5/p25, under 1000 nM in the assay on MV4-11 and 1000 to 10000 nM with HCT116. The “CDK1/CDK7: Selectivity of CDK7 inhibition over CDK1 inhibition” value at CDK7/Cyclin H/MNAT1 is “A (A=greater than 200 fold)”. Also, at CDK7/Cyclin H/MNAT1, the “CDK2/CDK7: Selectivity of CDK7 inhibition over CDK2 inhibition” value is reported as “A (A=greater than 200 fold)”. Besides, the “CDK5/CDK7: Selectivity of CDK7 inhibition over CDK5 inhibition” value on CDK7/Cyclin H/MNAT1 is given as “A (A=greater than 200 fold)”.

Turning to `CC(C)c1cnn2c(NCc3ccccc3-n3cccn3)nc(-c3cccc(C(=O)N4CCC(N)CC4)c3)nc12` [Compound 171], the IC50 in the assay on MOLT-4 was 1000 to 10000 nM; with H460 it was under 1000 nM; on CDK7/Cyclin H/MNAT1, under 100 nM; with RPMI-8226, 1000 to 10000 nM; at CDK2/Cyclin A, over 1000 nM; with MM.1S, at most 1000 nM. Moreover, the 50% inhibitory concentration (IC50) is over 1000 nM at CDK1/Cyclin B, over 1000 nM on CDK5/p25, under 1000 nM in the assay on MV4-11 and under 1000 nM in the assay on HCT116. For the same molecule, the “CDK1/CDK7: Selectivity of CDK7 inhibition over CDK1 inhibition” value at CDK7/Cyclin H/MNAT1 was “A (A=greater than 200 fold)”. Moreover, at CDK7/Cyclin H/MNAT1, the “CDK2/CDK7: Selectivity of CDK7 inhibition over CDK2 inhibition” value was “A (A=greater than 200 fold)”. Also, the “CDK5/CDK7: Selectivity of CDK7 inhibition over CDK5 inhibition” value at CDK7/Cyclin H/MNAT1 is recorded as “A (A=greater than 200 fold)”.

Take `CC(C)c1cnn2c(NCc3ccccc3-c3cc4ccccc4[nH]3)nc(N3CCC(N)CC3)nc12` [Compound 102]: the IC50 in the assay on H460 was under 1000 nM; on CDK7/Cyclin H/MNAT1, under 100 nM; in the assay with RPMI-8226, under 1000 nM; at CDK2/Cyclin A, 100 to 1000 nM; in the assay with MM.1S, at most 1000 nM; at CDK1/Cyclin B, 100 to 1000 nM. For the same molecule, the IC50 on CDK5/p25 is under 100 nM; in the assay with MV4-11 it was under 1000 nM; with A2780 it was at most 1000 nM; in the assay on HCT116 it was under 1000 nM. At CDK7/Cyclin H/MNAT1, the “CDK1/CDK7: Selectivity of CDK7 inhibition over CDK1 inhibition” value is recorded as “B (B=less than 200 fold, but greater than 20 fold)”. Moreover, the “CDK2/CDK7: Selectivity of CDK7 inhibition over CDK2 inhibition” value on CDK7/Cyclin H/MNAT1 is “B (B=less than 200 fold, but greater than 20 fold)”. On CDK7/Cyclin H/MNAT1, the “CDK5/CDK7: Selectivity of CDK7 inhibition over CDK5 inhibition” value was “C (C=less than 20 fold)”.

For the molecule `CC(C)c1cnn2c(NCc3ccccc3-c3ccc4ccccc4n3)cc(N3CCC(N)CC3)nc12` [Compound 73], the IC50 is 1000 to 10000 nM with MOLT-4; under 1000 nM with H460; under 100 nM at CDK7/Cyclin H/MNAT1; 1000 to 10000 nM with RPMI-8226; over 1000 nM at CDK2/Cyclin A; at most 1000 nM in the assay on MM.1S. The IC50 at CDK1/Cyclin B was over 1000 nM; on CDK5/p25 it was 100 to 1000 nM; in the assay with MV4-11, under 1000 nM; with HCT116 it was under 1000 nM. Further, the “CDK1/CDK7: Selectivity of CDK7 inhibition over CDK1 inhibition” value on CDK7/Cyclin H/MNAT1 is on record as “A (A=greater than 200 fold)”. The “CDK2/CDK7: Selectivity of CDK7 inhibition over CDK2 inhibition” value on CDK7/Cyclin H/MNAT1 was “A (A=greater than 200 fold)”. Besides, the “CDK5/CDK7: Selectivity of CDK7 inhibition over CDK5 inhibition” value on CDK7/Cyclin H/MNAT1 is reported as “B (B=less than 200 fold, but greater than 20 fold)”.

As to `CC(C)c1cnn2c(NCc3ccccc3-n3cc4ccccc4n3)nc(N3CCC(N)CC3)nc12` [Compound 72], the IC50 is under 1000 nM with MOLT-4; under 1000 nM in the assay with H460; under 100 nM at CDK7/Cyclin H/MNAT1; under 1000 nM in the assay with RPMI-8226; 100 to 1000 nM on CDK2/Cyclin A; at most 1000 nM in the assay with MM.1S. Also, the IC50 on CDK1/Cyclin B was 100 to 1000 nM; on CDK5/p25, 100 to 1000 nM; in the assay on MV4-11 it was under 1000 nM; in the assay with HCT116, under 1000 nM. Moreover, at CDK7/Cyclin H/MNAT1, the “CDK1/CDK7: Selectivity of CDK7 inhibition over CDK1 inhibition” value is on record as “A (A=greater than 200 fold)”. The “CDK2/CDK7: Selectivity of CDK7 inhibition over CDK2 inhibition” value on CDK7/Cyclin H/MNAT1 is reported as “B (B=less than 200 fold, but greater than 20 fold)”. The “CDK5/CDK7: Selectivity of CDK7 inhibition over CDK5 inhibition” value at CDK7/Cyclin H/MNAT1 was “B (B=less than 200 fold, but greater than 20 fold)”.

Take `CC(C)c1cnn2c(NCc3ccccc3OC3CCN(C)CC3)nc(N3CCC(N)CC3)nc12` [Compound 66]: the IC50 with MOLT-4 was 1000 to 10000 nM; in the assay with H460, under 1000 nM; at CDK7/Cyclin H/MNAT1, under 100 nM; in the assay on RPMI-8226, 1000 to 10000 nM; at CDK2/Cyclin A, over 1000 nM; in the assay with MM.1S it was at most 1000 nM. Also, the IC50 on CDK1/Cyclin B is over 1000 nM; on CDK5/p25, 100 to 1000 nM; with MV4-11, under 1000 nM; with HCT116 it was under 1000 nM. Moreover, the “CDK1/CDK7: Selectivity of CDK7 inhibition over CDK1 inhibition” value at CDK7/Cyclin H/MNAT1 is given as “A (A=greater than 200 fold)”. For the same molecule, the “CDK2/CDK7: Selectivity of CDK7 inhibition over CDK2 inhibition” value at CDK7/Cyclin H/MNAT1 is “A (A=greater than 200 fold)”. Moreover, the “CDK5/CDK7: Selectivity of CDK7 inhibition over CDK5 inhibition” value on CDK7/Cyclin H/MNAT1 is on record as “A (A=greater than 200 fold)”.

With `Cc1cccc(-n2cccn2)c1CNc1nc(N2CCC(N)CC2)nc2c(C(C)C)cnn12` [Compound 43], the 50% inhibitory concentration (IC50) in the assay on MOLT-4 is 1000 to 10000 nM; with H460 it was under 1000 nM; at CDK7/Cyclin H/MNAT1, under 100 nM; in the assay on RPMI-8226, 1000 to 10000 nM; at CDK2/Cyclin A, over 1000 nM; in the assay on MM.1S, 1000 to 10000 nM. The IC50 was over 1000 nM at CDK1/Cyclin B, over 1000 nM on CDK5/p25, under 1000 nM in the assay with MV4-11 and under 1000 nM with HCT116. In addition, the “CDK1/CDK7: Selectivity of CDK7 inhibition over CDK1 inhibition” value at CDK7/Cyclin H/MNAT1 is reported as “A (A=greater than 200 fold)”. Further, the “CDK2/CDK7: Selectivity of CDK7 inhibition over CDK2 inhibition” value at CDK7/Cyclin H/MNAT1 was “A (A=greater than 200 fold)”. Besides, the “CDK5/CDK7: Selectivity of CDK7 inhibition over CDK5 inhibition” value on CDK7/Cyclin H/MNAT1 is given as “A (A=greater than 200 fold)”.

The values are drawn from US11945822B2, “Pyrazolo-triazine and/or pyrazolo-pxrimidine derivatives as selective inhibitor of cyclin dependent kinase” (QURIENT CO., LTD., priority 2018, dated 2024).
